# Experimental data from patent US7875621B2, “Substituted 2-alkyl quinazolinone derivatives as PARP inhibitors” (Janssen Pharmaceutica NV, priority 2004, dated 2011).
# Legend:
# TANK-2 enzyme = biological target: T1, TANK-2 enzyme (Homo sapiens, UniProt Q9H2K2); experiment: In vitro scintillation proximity assay (SPA) for TANK-2 inhibitory activity; type: biochemical; settings: auto-poly(ADP-ribosyl)ation, [3H]-NAD+, 96- or 384-well Ni Flash plates; read-out: in vitro SPA TANK-2 pIC50 (converted)
# T1 construct: inferred from capture on Ni-coated flash plate; made in house
# T1 sequence (Q9H2K2 1-1166): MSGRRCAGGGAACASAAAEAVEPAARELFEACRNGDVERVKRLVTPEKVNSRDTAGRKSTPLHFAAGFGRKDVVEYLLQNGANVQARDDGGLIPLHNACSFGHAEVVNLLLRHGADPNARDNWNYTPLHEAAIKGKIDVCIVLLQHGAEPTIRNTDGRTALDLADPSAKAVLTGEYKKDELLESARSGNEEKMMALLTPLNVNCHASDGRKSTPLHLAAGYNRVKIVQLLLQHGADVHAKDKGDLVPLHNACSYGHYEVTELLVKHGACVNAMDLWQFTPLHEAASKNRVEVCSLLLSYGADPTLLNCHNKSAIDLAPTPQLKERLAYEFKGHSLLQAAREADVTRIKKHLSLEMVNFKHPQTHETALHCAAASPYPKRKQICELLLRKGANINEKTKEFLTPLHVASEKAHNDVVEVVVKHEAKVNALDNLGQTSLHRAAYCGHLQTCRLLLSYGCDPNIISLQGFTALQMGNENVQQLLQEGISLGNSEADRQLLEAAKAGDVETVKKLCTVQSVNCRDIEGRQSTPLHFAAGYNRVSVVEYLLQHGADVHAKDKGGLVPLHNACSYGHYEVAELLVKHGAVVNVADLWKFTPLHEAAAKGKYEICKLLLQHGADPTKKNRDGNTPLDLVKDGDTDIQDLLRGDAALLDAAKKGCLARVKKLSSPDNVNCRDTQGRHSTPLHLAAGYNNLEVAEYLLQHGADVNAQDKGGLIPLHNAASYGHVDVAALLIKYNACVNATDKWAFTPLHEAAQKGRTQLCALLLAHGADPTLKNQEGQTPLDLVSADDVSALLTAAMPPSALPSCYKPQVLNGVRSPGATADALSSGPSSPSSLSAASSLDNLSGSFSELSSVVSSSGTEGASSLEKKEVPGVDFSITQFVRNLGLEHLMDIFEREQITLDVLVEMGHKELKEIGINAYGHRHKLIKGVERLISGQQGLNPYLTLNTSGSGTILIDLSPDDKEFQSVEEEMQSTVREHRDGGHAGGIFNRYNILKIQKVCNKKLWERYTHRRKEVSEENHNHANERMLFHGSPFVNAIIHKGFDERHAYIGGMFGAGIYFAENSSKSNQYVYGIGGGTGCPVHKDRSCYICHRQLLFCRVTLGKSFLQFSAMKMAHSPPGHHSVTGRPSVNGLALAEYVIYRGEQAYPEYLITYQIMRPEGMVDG
# Protocol: In Vitro Scintillation Proximity Assay (SPA) for TANK-2 Inhibitory Activity
# Compounds of the present invention were tested in an in vitro assay based on SPA technology with Ni Flash plates (96 or 384 well).
# In principle, the assay relies upon SPA technology for the detection of auto-poly(ADP-ribosyl)ation of TANK-2 protein using [^3H]-nicotinamide adenine dinucleotide ([^3H]-NAD^+) as ADP-ribosyl donor.
# A stock solution of [^3H]-NAD^+/NAD was made by adding 64.6 μl of [^3H]-NAD^+ (0.1 mCi/ml, supplier: Perkin Elmer) and 46.7 μl NAD-stock (10.7 mM, stored at −20° C., supplier Roche) to 1888.7 μl assay buffer (60 mM Tris/HCl, pH 7.4; 0.9 mM DTT; 6 mM MgCl2). The TANK-2 enzyme was produced as described in EP1238063. 60 μl of assay buffer, together with 1 μl of compound in DMSO, 20 μl of [^3H]-NAD^+/NAD and 20 μl of TANK-2 enzyme (final concentration 6 μg/ml) was added per well into a 96-well Ni-coated flash plate (Perkin Elmer). After incubation of the mixture for 120 min. at room temperature, the reaction was terminated by adding 60 μl of stopsolution (42.6 mg NAD in 6 ml H2O). The plates were covered with a plate sealer and placed in a TopCountNXT™ (Packard) for scintillation counting. Values were expressed as counts per minute (cpm). For each experiment, controls (containing TANK-2 enzyme and DMSO without compound), a blank incubation (containing DMSO but no TANK-2 enzyme or compound) and samples (containing TANK-2 enzyme and compound dissolved in DMSO) were run in parallel. All compounds tested were dissolved and eventually further diluted in DMSO. In first instance, compounds were tested at a concentration of 10^−5M. […] In each test, the blank value was subtracted from both the control and the sample values. The control sample represented maximal TANK-2 enzyme activity. For each sample, the amount of cpm was expressed as a percentage of the mean cpm value of the controls. When appropriate, IC50-values (concentration of the drug, needed to reduce the TANK-2 enzyme activity to 50% of the control) were computed using linear interpolation between the experimental points just above and below the 50% level. Herein the effects of test compounds are expressed as pIC50 (the negative log value of the IC50-value). As reference compounds, 3-aminobenzamide and 4-amino-1,8-naphtalimide were included to validate the SPA assay. Herein the assay was described using 96-well plates. In the assay using 384-well plates the same final concentrations were used and volumes were adapted.
# [1] = tested on: infarct size in the heart; settings: rabbits, cited from earlier work
# colitis = settings: rats, colitis by intraluminal trinitrobenzene sulfonic acid in 50% ethanol; cited from earlier work
compound,measurement,setting,value
O=C1NC(CCN2CCC(C(=O)c3ccc(F)cc3)CC2)Nc2ccccc21 (stereo not shown) [Compound 1],IC50,TANK-2 enzyme,> 10 µM
"Oc1cccc2c(O)nccc12 [1,5-dihydroxyisoquinoline]",reduction in infarct size,[1]; single injection 1 mg/kg,38-48%
NC(=O)c1cccc(N)c1 [3-amino-benzamide],reduction in infarct size in the heart,"[1]; single injection 10 mg/kg, one minute before occlusion or before reperfusion",32-42%
same,effect on inflammatory response and distal colon,colitis,reduced the inflammatory response
